Converted amounts (≈) assume the structure as drawn.
Assays:
A-431 = experiment: cells; details: Homo sapiens
Description: Inhibitory concentration required against A 431 human epidermoid carcinoma cell line

B16 = experiment: Inhibitory concentration against B16 murine melanoma cell line; details: Mus musculus
HCT-116 = experiment: cells; details: Homo sapiens
Description: Inhibitory concentration against HCT 116 human colon cancer cell line

MDA-MB-231 = experiment: cells; details: Homo sapiens
Description: Inhibitory concentration required against MDA-MB-231 breast cancer cell line

DLD-1 = experiment: Inhibitory concentration required against DLD-1 colon cancer cell line; details: Homo sapiens
HT-29 = experiment: Inhibitory concentration required against HT 29 colon cancer cell line; details: Homo sapiens
ACHN = experiment: Inhibitory concentration required against ACHN renal cancer cell line; details: Homo sapiens
HCT-15 = experiment: Inhibitory concentration required against HCT 15 colon cancer cell line; details: Homo sapiens
HCC 2998 = experiment: Inhibitory concentration required against HCC2998 colon cancer cell line; details: Homo sapiens
A549 = experiment: cells; details: Homo sapiens
Description: Inhibitory concentration required against A 549 lung cancer cell line

UACC-62 = experiment: Inhibitory concentration required against UACC62 melanoma cell line; details: Homo sapiens
COLO 205 = experiment: cells; details: Homo sapiens
Description: Inhibitory concentration required against COLO 205 colon cancer cell line

SW-620 = experiment: Inhibitory concentration required against SW620 colon cancer cell line; details: Homo sapiens
PC-3 = experiment: Inhibitory concentration required against PC-3 prostate cancer cell line; details: Homo sapiens
SNB-19 = experiment: Inhibitory concentration required against SNB19 CNS cancer cell line; assay type: functional, cell-based; details: Homo sapiens
LOX IMVI = experiment: Inhibitory concentration required against LOX-IMVI melanoma cell line; details: Homo sapiens
NCI-H23 = experiment: Inhibitory concentration required against NCI-H23 lung cancer cell line; details: Homo sapiens
MCF7 = experiment: Inhibitory concentration required against MCF-7 breast cancer cell line; assay type: functional, cell-based; details: Homo sapiens

Row | SMILES | IC50 (A-431) | IC50 (B16) | IC50 (HCT-116) | other results
1 | COC(=O)/C=C/c1ccc(OC)c(O)c1 | > 30 mg/L | 25.9 mg/L (≈ 124 µM) | 27.5 mg/L (≈ 132 µM) | 
2 | COC(=O)/C=C/c1cc(O)c2c(c1O)C(=O)c1ccccc1C2=O | 0.87 mg/L (≈ 2.68 µM) | 0.18 mg/L (≈ 0.555 µM) | 0.65 mg/L (≈ 2 µM) | IC50 (MDA-MB-231): 0.74 mg/L (≈ 2.28 µM); IC50 (DLD-1): 0.89 mg/L (≈ 2.74 µM); IC50 (HT-29): 0.55 mg/L (≈ 1.7 µM); IC50 (ACHN): 0.42 mg/L (≈ 1.3 µM); IC50 (HCT-15): 0.66 mg/L (≈ 2.04 µM); IC50 (HCC 2998): 0.95 mg/L (≈ 2.93 µM); IC50 (A549): 1.13 mg/L (≈ 3.48 µM); IC50 (UACC-62): 0.11 mg/L (≈ 0.339 µM); IC50 (COLO 205): 0.73 mg/L (≈ 2.25 µM); IC50 (SW-620): 0.45 mg/L (≈ 1.39 µM); IC50 (PC-3): 2.72 mg/L (≈ 8.39 µM); IC50 (SNB-19): 0.69 mg/L (≈ 2.13 µM); IC50 (LOX IMVI): 0.09 mg/L (≈ 0.278 µM); IC50 (NCI-H23): 0.39 mg/L (≈ 1.2 µM); IC50 (MCF7): 0.46 mg/L (≈ 1.42 µM)
3 | COC(=O)/C=C/c1ccc2c(c1)OCO2 | > 30 mg/L | > 30 mg/L | > 30 mg/L | 
4 | COC(=O)CCc1cc(O)ccc1O | 5 mg/L (≈ 25.5 µM) | 4.43 mg/L (≈ 22.6 µM) | 4.59 mg/L (≈ 23.4 µM) | 
5 | COC(=O)/C=C/c1cc(O)ccc1O | 0.15 mg/L (≈ 0.772 µM) | 0.12 mg/L (≈ 0.618 µM) | 0.17 mg/L (≈ 0.875 µM) | IC50 (MDA-MB-231): 0.82 mg/L (≈ 4.22 µM); IC50 (DLD-1): 0.68 mg/L (≈ 3.5 µM); IC50 (HT-29): 1.1 mg/L (≈ 5.66 µM); IC50 (ACHN): 0.73 mg/L (≈ 3.76 µM); IC50 (HCT-15): 0.27 mg/L (≈ 1.39 µM); IC50 (HCC 2998): 5.22 mg/L (≈ 26.9 µM); IC50 (A549): 7.81 mg/L (≈ 40.2 µM); IC50 (UACC-62): 0.56 mg/L (≈ 2.88 µM); IC50 (COLO 205): 0.97 mg/L (≈ 5 µM); IC50 (SW-620): 0.39 mg/L (≈ 2.01 µM); IC50 (PC-3): 0.42 mg/L (≈ 2.16 µM); IC50 (SNB-19): 2.59 mg/L (≈ 13.3 µM); IC50 (LOX IMVI): 0.28 mg/L (≈ 1.44 µM); IC50 (NCI-H23): 0.93 mg/L (≈ 4.79 µM); IC50 (MCF7): 0.37 mg/L (≈ 1.91 µM)
6 | CCCOC(=O)/C=C/c1ccc(O)c(O)c1 | 1.89 mg/L (≈ 8.5 µM) | 2.46 mg/L (≈ 11.1 µM) | 2.12 mg/L (≈ 9.54 µM) | 
7 | CCOC(=O)/C=C/c1cc(OC)c2c(c1OC)C(=O)c1ccccc1C2=O | > 30 mg/L | > 30 mg/L | > 30 mg/L | 
8 | CCOC(=O)/C=C/c1cc(O)c2c(c1O)C(=O)c1ccccc1C2=O | 0.91 mg/L (≈ 2.69 µM) | 0.32 mg/L (≈ 0.946 µM) | 0.71 mg/L (≈ 2.1 µM) | 
9 | COC(=O)/C=C/c1ccc(OC)c(OC)c1 | > 30 mg/L | > 30 mg/L | > 30 mg/L | 
10 | O=C(/C=C/c1ccc(O)c(O)c1)Nc1ccccc1 | 5 mg/L (≈ 19.6 µM) | 4.23 mg/L (≈ 16.6 µM) | 4.26 mg/L (≈ 16.7 µM) | 
11 | COC(=O)/C=C\c1cc(O)ccc1O | > 30 mg/L | 30.1 mg/L (≈ 155 µM) | > 30 mg/L | 
12 | COC(=O)/C=C/c1cc(OC)c2c(c1OC)C(=O)c1ccccc1C2=O | > 30 mg/L | > 30 mg/L | > 30 mg/L | 
13 | COC(=O)/C=C/c1cc(OC)ccc1OC | > 30 mg/L | > 30 mg/L | > 30 mg/L | 
14 | O=C/C=C/c1ccc(O)c(O)c1 [CAFFEOYL ALDEHYDE] | > 30 mg/L | > 30 mg/L | > 30 mg/L | 
15 | COc1cccc2c1C(=O)c1c(O)c3c(c(O)c1C2=O)C[C@@](O)(C(=O)CO)C[C@@H]3O[C@H]1C[C@H](N)[C@H](O)[C@H](C)O1 [DOXORUBICIN] |  |  |  | IC50 (SNB-19): 0.29 mg/L (≈ 0.534 µM)
16 | CCOC(=O)/C=C/c1ccc(O)c(O)c1 [ETHYL CAFFEATE] | 1.81 mg/L (≈ 8.69 µM) | 1.75 mg/L (≈ 8.4 µM) | 1.99 mg/L (≈ 9.56 µM) | 
17 | COC(=O)/C=C/c1ccc(O)c(O)c1 [METHYLCAFFEATE] | 1.79 mg/L (≈ 9.22 µM) | 2.96 mg/L (≈ 15.2 µM) | 3.01 mg/L (≈ 15.5 µM) | 
18 | O=C1c2ccccc2C(=O)c2c(O)ccc(O)c21 [QUINIZARIN] | > 30 mg/L | > 30 mg/L | > 30 mg/L | 
